Paper PMC6478789, “A chemical toolbox for the study of bromodomains and epigenetic signaling” (Nature Communications, 2019)

Each compound was assayed against T1, PRC2-EZH2 (Homo sapiens, UniProt Q15910) (assay: Methyl transferase scintillation proximity assay). Conditions: 10µM; average of two measurements.
T1 construct: purchased DiscoverX BROMOscan (bromodomains); SGC in-house methyltransferase panel
Assay type: biochemical
Method in brief: (§1)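 Scintillation proximity format using ^3H-SAM as methyl donor; substrate biotinylated. Levels of both near apparent Km. Activity expressed relative to compound-free (100%) and enzyme-free (0%) counts.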

T1 sequence (Q15910 whole entry): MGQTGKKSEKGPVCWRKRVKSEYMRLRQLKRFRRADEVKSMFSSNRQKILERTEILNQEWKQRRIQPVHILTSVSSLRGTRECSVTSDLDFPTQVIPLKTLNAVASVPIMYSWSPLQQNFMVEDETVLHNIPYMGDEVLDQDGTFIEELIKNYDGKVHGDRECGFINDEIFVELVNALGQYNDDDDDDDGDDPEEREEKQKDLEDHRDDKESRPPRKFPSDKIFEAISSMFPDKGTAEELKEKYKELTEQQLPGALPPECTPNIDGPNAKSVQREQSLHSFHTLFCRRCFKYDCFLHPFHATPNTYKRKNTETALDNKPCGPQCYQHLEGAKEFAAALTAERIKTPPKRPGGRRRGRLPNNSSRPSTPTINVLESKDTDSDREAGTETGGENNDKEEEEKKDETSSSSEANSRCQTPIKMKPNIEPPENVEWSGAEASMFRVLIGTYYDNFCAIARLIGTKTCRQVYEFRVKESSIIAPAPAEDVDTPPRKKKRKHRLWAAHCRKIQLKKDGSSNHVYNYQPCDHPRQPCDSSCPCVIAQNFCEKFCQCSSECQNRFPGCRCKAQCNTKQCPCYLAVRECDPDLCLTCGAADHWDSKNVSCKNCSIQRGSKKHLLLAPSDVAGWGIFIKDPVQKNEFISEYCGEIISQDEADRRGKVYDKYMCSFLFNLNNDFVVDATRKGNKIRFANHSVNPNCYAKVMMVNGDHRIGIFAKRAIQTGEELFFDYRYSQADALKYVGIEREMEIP
T1 sequence (O75530 whole entry partner): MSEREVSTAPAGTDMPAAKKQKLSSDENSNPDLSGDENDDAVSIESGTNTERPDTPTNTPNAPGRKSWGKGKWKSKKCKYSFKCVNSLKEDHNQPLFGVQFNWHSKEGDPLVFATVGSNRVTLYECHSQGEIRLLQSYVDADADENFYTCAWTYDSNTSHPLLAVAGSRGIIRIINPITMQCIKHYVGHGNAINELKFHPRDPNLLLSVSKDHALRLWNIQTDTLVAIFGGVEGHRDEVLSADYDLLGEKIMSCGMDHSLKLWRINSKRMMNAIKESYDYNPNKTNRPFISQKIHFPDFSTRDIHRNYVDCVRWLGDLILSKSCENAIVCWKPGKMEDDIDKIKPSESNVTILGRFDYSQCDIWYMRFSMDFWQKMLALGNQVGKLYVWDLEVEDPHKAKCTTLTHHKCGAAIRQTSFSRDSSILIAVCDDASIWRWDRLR
T1 sequence (Q15022 whole entry partner): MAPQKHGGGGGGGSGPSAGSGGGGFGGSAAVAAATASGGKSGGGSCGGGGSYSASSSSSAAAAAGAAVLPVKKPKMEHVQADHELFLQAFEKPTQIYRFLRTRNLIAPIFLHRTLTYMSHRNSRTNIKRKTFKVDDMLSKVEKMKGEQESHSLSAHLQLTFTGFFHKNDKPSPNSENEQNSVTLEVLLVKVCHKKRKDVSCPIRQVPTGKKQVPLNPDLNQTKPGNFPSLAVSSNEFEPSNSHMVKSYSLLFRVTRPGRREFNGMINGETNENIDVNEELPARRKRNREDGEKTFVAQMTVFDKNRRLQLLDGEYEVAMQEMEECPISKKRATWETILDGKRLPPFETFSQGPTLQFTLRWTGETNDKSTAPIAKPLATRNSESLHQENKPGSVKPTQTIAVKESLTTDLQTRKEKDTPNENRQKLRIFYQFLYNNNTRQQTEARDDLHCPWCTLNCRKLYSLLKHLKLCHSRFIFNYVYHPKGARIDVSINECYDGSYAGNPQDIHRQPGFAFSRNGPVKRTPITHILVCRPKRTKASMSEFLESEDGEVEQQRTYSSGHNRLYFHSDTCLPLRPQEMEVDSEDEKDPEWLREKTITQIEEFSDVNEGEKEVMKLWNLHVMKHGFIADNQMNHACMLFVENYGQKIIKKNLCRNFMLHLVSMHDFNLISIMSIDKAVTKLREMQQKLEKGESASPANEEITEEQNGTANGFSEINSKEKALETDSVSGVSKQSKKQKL

Structure (SMILES) | MTases Inhibition (%)
COc1ccccc1C(=O)Nc1cc2c(cc1N1CCNC[C@H]1C)n(C)c(=O)n2C [GSK6853] | 0

Same assay, conditions: average of two measurements, read-out: MTases Inhibition (%)

Structure (SMILES) | inhibition at 10 µM [%]
CN1C[C@H](Nc2cnn(C)c(=O)c2Br)C[C@H](c2ccccc2)C1 [GSK4027] | -5
COc1cc(Cl)c(C(=O)N[C@@H](CN[C@H]2CC[C@@H](N)CC2)Cc2ccc(C#N)cc2)cc1-c1ccc(CN[C@H](C)c2ccc(C)cc2)o1 [BAY-850] | 3
CN(C)CCCOc1ccc(-c2cc(NCCCn3cccn3)nc(S(C)(=O)=O)n2)cc1 [TP-238] | 3
Cc1nnc2c3ccccc3c(N[C@@H](C)[C@H](c3ccccc3)N(C)C)nn12 [L-Moses] | -4
Cc1c(NC(=O)c2cc(C(N)=O)nc3cc(F)ccc23)c(C(F)(F)F)nn1Cc1ccc(C#N)cc1 [BAY-876] | 5
CO[C@H]1CNC[C@@H](OCC2CCC(F)(F)CC2)[C@@H]1Nc1ncc(-c2cncc(C)c2)c2cc(C)c(=O)[nH]c12 [GSK8814] | 2
Cc1c(NC(=O)c2cc(C(N)=O)nc3cc(F)ccc23)c(C(F)(F)F)nn1Cc1ccc(C(C)(C)C)cc1 [BAY-588] | 3

Each compound was assayed against T2, SMYD3 (Homo sapiens, UniProt Q9H7B4) (assay: Methyl transferase scintillation proximity assay). Conditions: 10µM; average of two measurements.
T2 construct: purchased DiscoverX BROMOscan (bromodomains); SGC in-house methyltransferase panel
T2 sequence (Q9H7B4 1-428): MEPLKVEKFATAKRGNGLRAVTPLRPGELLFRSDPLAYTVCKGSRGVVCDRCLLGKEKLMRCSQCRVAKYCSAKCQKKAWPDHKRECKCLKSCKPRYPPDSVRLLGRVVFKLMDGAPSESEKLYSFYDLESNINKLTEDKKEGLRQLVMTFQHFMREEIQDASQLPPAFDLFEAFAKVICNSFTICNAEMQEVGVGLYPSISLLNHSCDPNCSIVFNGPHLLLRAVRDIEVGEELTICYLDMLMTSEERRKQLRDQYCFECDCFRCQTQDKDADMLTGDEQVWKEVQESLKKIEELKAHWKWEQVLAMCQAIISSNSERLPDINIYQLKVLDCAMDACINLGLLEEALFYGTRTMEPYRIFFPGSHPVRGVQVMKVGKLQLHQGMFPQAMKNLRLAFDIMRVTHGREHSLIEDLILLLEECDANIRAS
Assay type: biochemical
Method in brief: as §1

Structure (SMILES) | MTases Inhibition (%)
COc1ccccc1C(=O)Nc1cc2c(cc1N1CCNC[C@H]1C)n(C)c(=O)n2C [GSK6853] | 9

Same assay, conditions: average of two measurements, read-out: MTases Inhibition (%)

Structure (SMILES) | inhibition at 10 µM [%]
CN1C[C@H](Nc2cnn(C)c(=O)c2Br)C[C@H](c2ccccc2)C1 [GSK4027] | 1
COc1cc(Cl)c(C(=O)N[C@@H](CN[C@H]2CC[C@@H](N)CC2)Cc2ccc(C#N)cc2)cc1-c1ccc(CN[C@H](C)c2ccc(C)cc2)o1 [BAY-850] | 6
CN(C)CCCOc1ccc(-c2cc(NCCCn3cccn3)nc(S(C)(=O)=O)n2)cc1 [TP-238] | 7
Cc1nnc2c3ccccc3c(N[C@@H](C)[C@H](c3ccccc3)N(C)C)nn12 [L-Moses] | 10
Cc1c(NC(=O)c2cc(C(N)=O)nc3cc(F)ccc23)c(C(F)(F)F)nn1Cc1ccc(C#N)cc1 [BAY-876] | 3
CO[C@H]1CNC[C@@H](OCC2CCC(F)(F)CC2)[C@@H]1Nc1ncc(-c2cncc(C)c2)c2cc(C)c(=O)[nH]c12 [GSK8814] | 8
Cc1c(NC(=O)c2cc(C(N)=O)nc3cc(F)ccc23)c(C(F)(F)F)nn1Cc1ccc(C(C)(C)C)cc1 [BAY-588] | 7

These compounds were tested against T3, PRMT4 (Homo sapiens, UniProt Q86X55) (assay: Methyl transferase scintillation proximity assay). Conditions: 10µM; average of two measurements.
T3 construct: purchased DiscoverX BROMOscan (bromodomains); SGC in-house methyltransferase panel
T3 sequence (Q86X55 1-608): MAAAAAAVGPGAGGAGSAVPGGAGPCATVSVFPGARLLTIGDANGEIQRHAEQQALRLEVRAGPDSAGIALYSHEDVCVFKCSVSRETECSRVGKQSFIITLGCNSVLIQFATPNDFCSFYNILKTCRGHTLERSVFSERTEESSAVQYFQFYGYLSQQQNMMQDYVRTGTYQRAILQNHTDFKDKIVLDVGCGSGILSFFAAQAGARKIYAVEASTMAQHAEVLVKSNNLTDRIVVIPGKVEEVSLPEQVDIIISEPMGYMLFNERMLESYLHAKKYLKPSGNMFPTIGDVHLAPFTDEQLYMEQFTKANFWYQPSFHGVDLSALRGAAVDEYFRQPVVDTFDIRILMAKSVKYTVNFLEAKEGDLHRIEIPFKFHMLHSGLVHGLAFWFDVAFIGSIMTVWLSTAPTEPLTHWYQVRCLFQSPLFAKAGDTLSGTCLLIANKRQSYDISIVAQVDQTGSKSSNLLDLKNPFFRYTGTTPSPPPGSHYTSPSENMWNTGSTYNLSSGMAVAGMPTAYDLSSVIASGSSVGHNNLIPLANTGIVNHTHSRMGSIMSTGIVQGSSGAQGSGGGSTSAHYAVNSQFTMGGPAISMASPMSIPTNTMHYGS
Assay type: biochemical
Method in brief: as §1

Structure (SMILES) | MTases Inhibition (%)
COc1ccccc1C(=O)Nc1cc2c(cc1N1CCNC[C@H]1C)n(C)c(=O)n2C [GSK6853] | 2

Same assay, conditions: average of two measurements, read-out: MTases Inhibition (%)

Structure (SMILES) | inhibition at 10 µM [%]
CN1C[C@H](Nc2cnn(C)c(=O)c2Br)C[C@H](c2ccccc2)C1 [GSK4027] | -2
COc1cc(Cl)c(C(=O)N[C@@H](CN[C@H]2CC[C@@H](N)CC2)Cc2ccc(C#N)cc2)cc1-c1ccc(CN[C@H](C)c2ccc(C)cc2)o1 [BAY-850] | 25
CN(C)CCCOc1ccc(-c2cc(NCCCn3cccn3)nc(S(C)(=O)=O)n2)cc1 [TP-238] | 3
Cc1nnc2c3ccccc3c(N[C@@H](C)[C@H](c3ccccc3)N(C)C)nn12 [L-Moses] | 6
Cc1c(NC(=O)c2cc(C(N)=O)nc3cc(F)ccc23)c(C(F)(F)F)nn1Cc1ccc(C#N)cc1 [BAY-876] | 1
CO[C@H]1CNC[C@@H](OCC2CCC(F)(F)CC2)[C@@H]1Nc1ncc(-c2cncc(C)c2)c2cc(C)c(=O)[nH]c12 [GSK8814] | 1
Cc1c(NC(=O)c2cc(C(N)=O)nc3cc(F)ccc23)c(C(F)(F)F)nn1Cc1ccc(C(C)(C)C)cc1 [BAY-588] | 9

The compounds below were run against T4, NSD2 (Homo sapiens, UniProt O96028) (assay: Methyl transferase scintillation proximity assay). Conditions: 10µM; average of two measurements.
T4 construct: purchased DiscoverX BROMOscan (bromodomains); SGC in-house methyltransferase panel
T4 sequence (O96028 1-1365): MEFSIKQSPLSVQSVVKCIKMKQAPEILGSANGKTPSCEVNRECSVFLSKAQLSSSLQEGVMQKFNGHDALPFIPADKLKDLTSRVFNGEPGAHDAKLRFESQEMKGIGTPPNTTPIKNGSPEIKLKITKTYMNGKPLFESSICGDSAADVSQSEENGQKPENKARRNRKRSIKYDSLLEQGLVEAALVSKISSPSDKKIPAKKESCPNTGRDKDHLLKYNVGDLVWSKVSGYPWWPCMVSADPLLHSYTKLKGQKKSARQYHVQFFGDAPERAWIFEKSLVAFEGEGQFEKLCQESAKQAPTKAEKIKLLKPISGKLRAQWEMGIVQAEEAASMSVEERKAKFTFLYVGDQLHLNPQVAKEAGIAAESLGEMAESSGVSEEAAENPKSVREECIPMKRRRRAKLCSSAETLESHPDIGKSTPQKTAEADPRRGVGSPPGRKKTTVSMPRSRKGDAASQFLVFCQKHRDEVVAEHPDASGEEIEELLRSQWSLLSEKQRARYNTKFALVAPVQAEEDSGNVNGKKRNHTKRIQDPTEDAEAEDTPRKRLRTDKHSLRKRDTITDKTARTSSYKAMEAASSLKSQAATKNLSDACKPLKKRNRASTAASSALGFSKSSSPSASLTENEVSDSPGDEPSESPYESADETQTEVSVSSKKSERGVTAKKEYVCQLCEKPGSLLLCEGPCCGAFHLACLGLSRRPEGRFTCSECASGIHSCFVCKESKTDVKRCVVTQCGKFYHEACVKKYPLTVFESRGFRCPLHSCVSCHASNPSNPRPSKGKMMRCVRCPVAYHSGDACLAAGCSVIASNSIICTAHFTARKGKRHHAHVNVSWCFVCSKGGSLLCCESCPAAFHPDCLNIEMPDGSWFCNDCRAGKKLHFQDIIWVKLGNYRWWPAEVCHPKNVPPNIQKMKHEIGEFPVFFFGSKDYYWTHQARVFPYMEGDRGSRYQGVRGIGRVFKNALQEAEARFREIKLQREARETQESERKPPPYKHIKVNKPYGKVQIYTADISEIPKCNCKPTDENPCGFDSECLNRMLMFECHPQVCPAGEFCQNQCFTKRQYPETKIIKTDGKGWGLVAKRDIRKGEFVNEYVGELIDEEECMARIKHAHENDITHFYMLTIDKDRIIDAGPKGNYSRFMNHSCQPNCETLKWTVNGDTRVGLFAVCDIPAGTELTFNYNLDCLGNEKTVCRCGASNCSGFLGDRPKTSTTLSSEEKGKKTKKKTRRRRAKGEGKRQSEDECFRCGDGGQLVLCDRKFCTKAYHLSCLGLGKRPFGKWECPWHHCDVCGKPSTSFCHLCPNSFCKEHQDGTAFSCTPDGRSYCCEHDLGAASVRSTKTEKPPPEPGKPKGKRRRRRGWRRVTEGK
Assay type: biochemical
Method in brief: as §1

Structure (SMILES) | MTases Inhibition (%)
COc1ccccc1C(=O)Nc1cc2c(cc1N1CCNC[C@H]1C)n(C)c(=O)n2C [GSK6853] | 13

Same assay, conditions: average of two measurements, read-out: MTases Inhibition (%)

Structure (SMILES) | inhibition at 10 µM [%]
CN1C[C@H](Nc2cnn(C)c(=O)c2Br)C[C@H](c2ccccc2)C1 [GSK4027] | 15
COc1cc(Cl)c(C(=O)N[C@@H](CN[C@H]2CC[C@@H](N)CC2)Cc2ccc(C#N)cc2)cc1-c1ccc(CN[C@H](C)c2ccc(C)cc2)o1 [BAY-850] | -1
CN(C)CCCOc1ccc(-c2cc(NCCCn3cccn3)nc(S(C)(=O)=O)n2)cc1 [TP-238] | 3
Cc1nnc2c3ccccc3c(N[C@@H](C)[C@H](c3ccccc3)N(C)C)nn12 [L-Moses] | 2
Cc1c(NC(=O)c2cc(C(N)=O)nc3cc(F)ccc23)c(C(F)(F)F)nn1Cc1ccc(C#N)cc1 [BAY-876] | 0
CO[C@H]1CNC[C@@H](OCC2CCC(F)(F)CC2)[C@@H]1Nc1ncc(-c2cncc(C)c2)c2cc(C)c(=O)[nH]c12 [GSK8814] | 24
Cc1c(NC(=O)c2cc(C(N)=O)nc3cc(F)ccc23)c(C(F)(F)F)nn1Cc1ccc(C(C)(C)C)cc1 [BAY-588] | 2

Each compound was assayed against T5, DNMT3A/3L (Homo sapiens, UniProt Q9Y6K1) (assay: Methyl transferase scintillation proximity assay). Conditions: 10µM; average of two measurements.
T5 construct: purchased DiscoverX BROMOscan (bromodomains); SGC in-house methyltransferase panel
T5 sequence (Q9Y6K1 whole entry, looked up): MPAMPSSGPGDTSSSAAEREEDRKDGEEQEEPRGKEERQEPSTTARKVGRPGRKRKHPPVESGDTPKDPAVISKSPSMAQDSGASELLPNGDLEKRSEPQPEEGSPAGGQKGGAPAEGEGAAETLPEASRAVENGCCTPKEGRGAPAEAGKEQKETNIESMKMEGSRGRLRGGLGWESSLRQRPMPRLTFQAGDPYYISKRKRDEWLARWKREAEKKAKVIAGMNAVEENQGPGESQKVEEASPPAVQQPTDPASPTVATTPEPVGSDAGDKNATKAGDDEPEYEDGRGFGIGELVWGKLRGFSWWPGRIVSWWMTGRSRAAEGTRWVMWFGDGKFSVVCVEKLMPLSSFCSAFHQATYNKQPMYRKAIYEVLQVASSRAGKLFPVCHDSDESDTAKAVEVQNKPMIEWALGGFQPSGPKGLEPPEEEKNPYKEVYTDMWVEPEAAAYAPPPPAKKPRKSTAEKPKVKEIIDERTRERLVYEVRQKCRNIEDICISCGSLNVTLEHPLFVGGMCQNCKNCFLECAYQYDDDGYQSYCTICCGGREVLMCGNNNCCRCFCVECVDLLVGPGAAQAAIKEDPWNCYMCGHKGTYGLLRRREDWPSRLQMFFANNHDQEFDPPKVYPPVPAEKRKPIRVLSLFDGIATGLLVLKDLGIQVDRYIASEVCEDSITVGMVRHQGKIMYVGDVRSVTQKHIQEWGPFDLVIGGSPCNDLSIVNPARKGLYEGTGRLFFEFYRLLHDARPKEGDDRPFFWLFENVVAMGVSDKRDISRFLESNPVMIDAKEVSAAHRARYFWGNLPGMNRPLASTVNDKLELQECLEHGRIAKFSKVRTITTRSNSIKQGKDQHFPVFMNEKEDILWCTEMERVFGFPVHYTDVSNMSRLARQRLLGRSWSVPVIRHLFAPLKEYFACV
T5 sequence (Q9UJW3 whole entry partner): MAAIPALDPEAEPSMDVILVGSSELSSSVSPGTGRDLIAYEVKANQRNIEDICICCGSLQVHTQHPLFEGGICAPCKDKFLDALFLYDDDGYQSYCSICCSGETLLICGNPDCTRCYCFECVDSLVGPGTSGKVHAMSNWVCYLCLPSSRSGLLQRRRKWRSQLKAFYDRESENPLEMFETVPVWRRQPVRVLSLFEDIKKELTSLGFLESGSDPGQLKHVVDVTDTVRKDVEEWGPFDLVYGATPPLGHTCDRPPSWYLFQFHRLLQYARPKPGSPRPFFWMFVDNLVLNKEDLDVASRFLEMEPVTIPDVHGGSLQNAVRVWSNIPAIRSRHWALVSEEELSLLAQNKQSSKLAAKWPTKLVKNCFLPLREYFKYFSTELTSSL
Assay type: biochemical
Method in brief: as §1

Structure (SMILES) | MTases Inhibition (%)
COc1ccccc1C(=O)Nc1cc2c(cc1N1CCNC[C@H]1C)n(C)c(=O)n2C [GSK6853] | 13

Same assay, conditions: average of two measurements, read-out: MTases Inhibition (%)

Structure (SMILES) | inhibition at 10 µM [%]
CN1C[C@H](Nc2cnn(C)c(=O)c2Br)C[C@H](c2ccccc2)C1 [GSK4027] | 3
COc1cc(Cl)c(C(=O)N[C@@H](CN[C@H]2CC[C@@H](N)CC2)Cc2ccc(C#N)cc2)cc1-c1ccc(CN[C@H](C)c2ccc(C)cc2)o1 [BAY-850] | 21
CN(C)CCCOc1ccc(-c2cc(NCCCn3cccn3)nc(S(C)(=O)=O)n2)cc1 [TP-238] | 8
Cc1nnc2c3ccccc3c(N[C@@H](C)[C@H](c3ccccc3)N(C)C)nn12 [L-Moses] | 2
Cc1c(NC(=O)c2cc(C(N)=O)nc3cc(F)ccc23)c(C(F)(F)F)nn1Cc1ccc(C#N)cc1 [BAY-876] | 6
CO[C@H]1CNC[C@@H](OCC2CCC(F)(F)CC2)[C@@H]1Nc1ncc(-c2cncc(C)c2)c2cc(C)c(=O)[nH]c12 [GSK8814] | 8
Cc1c(NC(=O)c2cc(C(N)=O)nc3cc(F)ccc23)c(C(F)(F)F)nn1Cc1ccc(C(C)(C)C)cc1 [BAY-588] | -1
